# According to ChEMBL document CHEMBL1136896, “Synthesis and biological evaluation of arylhydrazinocyanoacrylates and N-aryl pyrazolecarboxylates” (2009):
# Tested on: Bel-7402
# Experiment: Antitumor activity against human Bel7402 cells at 100 uM/L after 72 hrs by MTT assay
# Format: functional
# Details: Bel-7402, 72 h
row,SMILES,inhibition at 100 µM [%]
1,CCOCCOC(=O)c1c(C(C)C)nn(-c2ccc(Cl)cc2Cl)c1N,4.2
2,CCOCCOC(=O)c1c(SC)nn(-c2ccc(Cl)cc2Cl)c1N,0
3,CCOCCOC(=O)/C(C#N)=C(/CC)NNc1c(Cl)cccc1Cl,54.6

# Tested on: Alternaria solani
# Experiment: Fungicidal activity against Alternaria solani assessed as inhibition of mycelium growth at 50 mg/L after 72 hrs
# Format: functional
# Details: not given
row,SMILES,inhibition at 50 µg/mL [%]
1,CCOCCOC(=O)c1c(C(C)C)nn(-c2ccc(Cl)cc2Cl)c1N,28
2,CCOCCOC(=O)c1c(SC)nn(-c2ccc(Cl)cc2Cl)c1N,16
3,CCOCCOC(=O)/C(C#N)=C(/CC)NNc1c(Cl)cccc1Cl,10

# Tested on: Cucumis sativus
# Experiment: Growth regulatory activity in cucumber assessed as root growth at 10 mg/L incubated in dark for 5 days
# Format: functional
# Details: not given
row,SMILES,Activity [%]
1,CCOCCOC(=O)c1c(C(C)C)nn(-c2ccc(Cl)cc2Cl)c1N,-2.4
2,CCOCCOC(=O)c1c(SC)nn(-c2ccc(Cl)cc2Cl)c1N,17.8
3,CCOCCOC(=O)/C(C#N)=C(/CC)NNc1c(Cl)cccc1Cl,-6

# Tested on: Digitaria sanguinalis
# Experiment: Herbicidal activity against Digitaria sanguinalis (L.) Scop. at 1.5 kg/hectare administered preemergence of first true leaf measured after 10 days
# Format: functional
# Details: pre-emergence, 240 h
row,SMILES,inhibition at 1500 g/ha [%]
1,CCOCCOC(=O)c1c(C(C)C)nn(-c2ccc(Cl)cc2Cl)c1N,0
2,CCOCCOC(=O)c1c(SC)nn(-c2ccc(Cl)cc2Cl)c1N,0
3,CCOCCOC(=O)/C(C#N)=C(/CC)NNc1c(Cl)cccc1Cl,0

# Tested on: Mycosphaerella arachidis
# Experiment: Fungicidal activity against Cercospora arachidicola assessed as inhibition of mycelium growth at 50 mg/L after 72 hrs
# Format: functional
# Details: not given
row,SMILES,inhibition at 50 µg/mL [%]
1,CCOCCOC(=O)c1c(C(C)C)nn(-c2ccc(Cl)cc2Cl)c1N,44.1
2,CCOCCOC(=O)c1c(SC)nn(-c2ccc(Cl)cc2Cl)c1N,47.1
3,CCOCCOC(=O)/C(C#N)=C(/CC)NNc1c(Cl)cccc1Cl,24.4

# Tested on: Botryosphaeria berengeriana
# Experiment: Fungicidal activity against Physalospora pyricola assessed as inhibition of mycelium growth at 50 mg/L after 72 hrs
# Format: functional
# Details: not given
row,SMILES,inhibition at 50 µg/mL [%]
1,CCOCCOC(=O)c1c(C(C)C)nn(-c2ccc(Cl)cc2Cl)c1N,9.3
2,CCOCCOC(=O)c1c(SC)nn(-c2ccc(Cl)cc2Cl)c1N,46.7
3,CCOCCOC(=O)/C(C#N)=C(/CC)NNc1c(Cl)cccc1Cl,24

# Tested on: Amaranthus retroflexus
# Experiment: Herbicidal activity against Amaranthus retroflexus at 1.5 kg/hectare administered preemergence of first true leaf measured after 10 days
# Format: functional
# Details: pre-emergence, 240 h
row,SMILES,inhibition at 1500 g/ha [%]
1,CCOCCOC(=O)c1c(C(C)C)nn(-c2ccc(Cl)cc2Cl)c1N,0
2,CCOCCOC(=O)c1c(SC)nn(-c2ccc(Cl)cc2Cl)c1N,0
3,CCOCCOC(=O)/C(C#N)=C(/CC)NNc1c(Cl)cccc1Cl,8.8

# Tested on: HL-60
# Experiment: Antitumor activity against human HL60 cells at 100 uM/L after 72 hrs by MTT assay
# Format: functional
# Details: HL-60, 72 h
row,SMILES,inhibition at 100 µM [%]
1,CCOCCOC(=O)c1c(C(C)C)nn(-c2ccc(Cl)cc2Cl)c1N,11.8
2,CCOCCOC(=O)c1c(SC)nn(-c2ccc(Cl)cc2Cl)c1N,16.9
3,CCOCCOC(=O)/C(C#N)=C(/CC)NNc1c(Cl)cccc1Cl,72.4

# Tested on: Amaranthus retroflexus
# Experiment: Herbicidal activity against Amaranthus retroflexus at 1.5 kg/hectare administered postemergence of first true leaf measured after 10 days
# Format: functional
# Details: post-emergence, 240 h
row,SMILES,inhibition at 1500 g/ha [%]
1,CCOCCOC(=O)c1c(C(C)C)nn(-c2ccc(Cl)cc2Cl)c1N,0
2,CCOCCOC(=O)c1c(SC)nn(-c2ccc(Cl)cc2Cl)c1N,0
3,CCOCCOC(=O)/C(C#N)=C(/CC)NNc1c(Cl)cccc1Cl,22.7

# Tested on: HL-60
# Experiment: Antitumor activity against human HL60 cells at 1000 uM/L after 72 hrs by MTT assay
# Format: functional
# Details: HL-60, 72 h
row,SMILES,inhibition at 1000 µM [%]
1,CCOCCOC(=O)c1c(C(C)C)nn(-c2ccc(Cl)cc2Cl)c1N,56.8
2,CCOCCOC(=O)c1c(SC)nn(-c2ccc(Cl)cc2Cl)c1N,56.1
3,CCOCCOC(=O)/C(C#N)=C(/CC)NNc1c(Cl)cccc1Cl,80.4

# Tested on: Bel-7402
# Experiment: Antitumor activity against human Bel7402 cells at 10 uM/L after 72 hrs by MTT assay
# Format: functional
# Details: Bel-7402, 72 h
row,SMILES,inhibition at 10 µM [%]
1,CCOCCOC(=O)c1c(C(C)C)nn(-c2ccc(Cl)cc2Cl)c1N,0
2,CCOCCOC(=O)c1c(SC)nn(-c2ccc(Cl)cc2Cl)c1N,0
3,CCOCCOC(=O)/C(C#N)=C(/CC)NNc1c(Cl)cccc1Cl,17.1

# Tested on: Digitaria sanguinalis
# Experiment: Herbicidal activity against Digitaria sanguinalis at 1.5 kg/hectare administered postemergence of first true leaf measured after 10 days
# Format: functional
# Details: post-emergence, 240 h
row,SMILES,inhibition at 1500 g/ha [%]
1,CCOCCOC(=O)c1c(C(C)C)nn(-c2ccc(Cl)cc2Cl)c1N,0
2,CCOCCOC(=O)c1c(SC)nn(-c2ccc(Cl)cc2Cl)c1N,0
3,CCOCCOC(=O)/C(C#N)=C(/CC)NNc1c(Cl)cccc1Cl,0

# Tested on: Bel-7402
# Experiment: Antitumor activity against human Bel7402 cells at 1 uM/L after 72 hrs by MTT assay
# Format: functional
# Details: Bel-7402, 72 h
row,SMILES,inhibition at 1 µM [%]
1,CCOCCOC(=O)c1c(C(C)C)nn(-c2ccc(Cl)cc2Cl)c1N,5.5
2,CCOCCOC(=O)c1c(SC)nn(-c2ccc(Cl)cc2Cl)c1N,0
3,CCOCCOC(=O)/C(C#N)=C(/CC)NNc1c(Cl)cccc1Cl,11.5

# Tested on: Cladosporium cucumerinum
# Experiment: Fungicidal activity against Cladosporium cucumerinum assessed as inhibition of mycelium growth at 50 mg/L after 72 hrs
# Format: functional
# Details: not given
row,SMILES,inhibition at 50 µg/mL [%]
1,CCOCCOC(=O)c1c(C(C)C)nn(-c2ccc(Cl)cc2Cl)c1N,30.9
2,CCOCCOC(=O)c1c(SC)nn(-c2ccc(Cl)cc2Cl)c1N,32.7
3,CCOCCOC(=O)/C(C#N)=C(/CC)NNc1c(Cl)cccc1Cl,0

# Tested on: Brassica napus
# Experiment: Herbicidal activity against Brassica napus at 1.5 kg/hectare administered postemergence of first true leaf measured after 10 days
# Format: functional
# Details: post-emergence, 240 h
row,SMILES,inhibition at 1500 g/ha [%]
1,CCOCCOC(=O)c1c(C(C)C)nn(-c2ccc(Cl)cc2Cl)c1N,0
2,CCOCCOC(=O)c1c(SC)nn(-c2ccc(Cl)cc2Cl)c1N,0
3,CCOCCOC(=O)/C(C#N)=C(/CC)NNc1c(Cl)cccc1Cl,11.1

# Tested on: HL-60
# Experiment: Antitumor activity against human HL60 cells at 1 uM/L after 72 hrs by MTT assay
# Format: functional
# Details: HL-60, 72 h
row,SMILES,inhibition at 1 µM [%]
1,CCOCCOC(=O)c1c(C(C)C)nn(-c2ccc(Cl)cc2Cl)c1N,4.4
2,CCOCCOC(=O)c1c(SC)nn(-c2ccc(Cl)cc2Cl)c1N,4.3
3,CCOCCOC(=O)/C(C#N)=C(/CC)NNc1c(Cl)cccc1Cl,4.3

# Tested on: Medicago sativa
# Experiment: Herbicidal activity against Medicago sativa at 1.5 kg/hectare administered preemergence of first true leaf measured after 10 days
# Format: functional
# Details: pre-emergence, 240 h
row,SMILES,inhibition at 1500 g/ha [%]
1,CCOCCOC(=O)c1c(C(C)C)nn(-c2ccc(Cl)cc2Cl)c1N,0
2,CCOCCOC(=O)c1c(SC)nn(-c2ccc(Cl)cc2Cl)c1N,0
3,CCOCCOC(=O)/C(C#N)=C(/CC)NNc1c(Cl)cccc1Cl,0

# Tested on: Medicago sativa
# Experiment: Herbicidal activity against Medicago sativa at 1.5 kg/hectare administered postemergence of first true leaf measured after 10 days
# Format: functional
# Details: post-emergence, 240 h
row,SMILES,inhibition at 1500 g/ha [%]
1,CCOCCOC(=O)c1c(C(C)C)nn(-c2ccc(Cl)cc2Cl)c1N,16.6
2,CCOCCOC(=O)c1c(SC)nn(-c2ccc(Cl)cc2Cl)c1N,0
3,CCOCCOC(=O)/C(C#N)=C(/CC)NNc1c(Cl)cccc1Cl,2.3

# Tested on: HL-60
# Experiment: Antitumor activity against human HL60 cells at 10 uM/L after 72 hrs by MTT assay
# Format: functional
# Details: HL-60, 72 h
row,SMILES,inhibition at 10 µM [%]
1,CCOCCOC(=O)c1c(C(C)C)nn(-c2ccc(Cl)cc2Cl)c1N,4.4
2,CCOCCOC(=O)c1c(SC)nn(-c2ccc(Cl)cc2Cl)c1N,8.4
3,CCOCCOC(=O)/C(C#N)=C(/CC)NNc1c(Cl)cccc1Cl,35.9

# Tested on: Bel-7402
# Experiment: Antitumor activity against human Bel7402 cells at 1000 uM/L after 72 hrs by MTT assay
# Format: functional
# Details: Bel-7402, 72 h
row,SMILES,inhibition at 1000 µM [%]
1,CCOCCOC(=O)c1c(C(C)C)nn(-c2ccc(Cl)cc2Cl)c1N,45.6
2,CCOCCOC(=O)c1c(SC)nn(-c2ccc(Cl)cc2Cl)c1N,46.7
3,CCOCCOC(=O)/C(C#N)=C(/CC)NNc1c(Cl)cccc1Cl,79.8

# Tested on: Brassica napus
# Experiment: Herbicidal activity against Brassica napus L. at 1.5 kg/hectare administered preemergence of first true leaf measured after 10 days
# Format: functional
# Details: pre-emergence, 240 h
row,SMILES,inhibition at 1500 g/ha [%]
1,CCOCCOC(=O)c1c(C(C)C)nn(-c2ccc(Cl)cc2Cl)c1N,0
2,CCOCCOC(=O)c1c(SC)nn(-c2ccc(Cl)cc2Cl)c1N,30
3,CCOCCOC(=O)/C(C#N)=C(/CC)NNc1c(Cl)cccc1Cl,5.3

# Tested on: Fusarium graminearum
# Experiment: Fungicidal activity against Gibberella zeae assessed as inhibition of mycelium growth at 50 mg/L after 72 hrs
# Format: functional
# Details: not given
row,SMILES,inhibition at 50 µg/mL [%]
1,CCOCCOC(=O)c1c(C(C)C)nn(-c2ccc(Cl)cc2Cl)c1N,26.7
2,CCOCCOC(=O)c1c(SC)nn(-c2ccc(Cl)cc2Cl)c1N,42.2
3,CCOCCOC(=O)/C(C#N)=C(/CC)NNc1c(Cl)cccc1Cl,0
